Source: US6623981B2, “Detection of patients at risk for developing integrin antagonist/agonist mediated disease states” (Bristol-Myers Squibb Company, priority 1998, dated 2003)
pIC50: −log10 of the molar value.

What was measured:
GPIIb/IIIa = biological target: T1, GPIIb/IIIa (Homo sapiens, UniProt P05106+P08514); test: DDAB ELISA Type-2 screen of blood donor plasma (general population); type: binding; conditions: American Red Cross blood donors
T1 construct: GPIIb/IIIa was either obtained from commercial sources (Enzyme Research Laboratories) or purified as outlined below; Outdated platelet concentrates; tissue Enzyme Research Laboratories (alternative source; no catalogue number given); host or cells: outdated platelet concentrates (Interstate Blood Bank)
T1 sequence (P08514 32-887 limits assumed): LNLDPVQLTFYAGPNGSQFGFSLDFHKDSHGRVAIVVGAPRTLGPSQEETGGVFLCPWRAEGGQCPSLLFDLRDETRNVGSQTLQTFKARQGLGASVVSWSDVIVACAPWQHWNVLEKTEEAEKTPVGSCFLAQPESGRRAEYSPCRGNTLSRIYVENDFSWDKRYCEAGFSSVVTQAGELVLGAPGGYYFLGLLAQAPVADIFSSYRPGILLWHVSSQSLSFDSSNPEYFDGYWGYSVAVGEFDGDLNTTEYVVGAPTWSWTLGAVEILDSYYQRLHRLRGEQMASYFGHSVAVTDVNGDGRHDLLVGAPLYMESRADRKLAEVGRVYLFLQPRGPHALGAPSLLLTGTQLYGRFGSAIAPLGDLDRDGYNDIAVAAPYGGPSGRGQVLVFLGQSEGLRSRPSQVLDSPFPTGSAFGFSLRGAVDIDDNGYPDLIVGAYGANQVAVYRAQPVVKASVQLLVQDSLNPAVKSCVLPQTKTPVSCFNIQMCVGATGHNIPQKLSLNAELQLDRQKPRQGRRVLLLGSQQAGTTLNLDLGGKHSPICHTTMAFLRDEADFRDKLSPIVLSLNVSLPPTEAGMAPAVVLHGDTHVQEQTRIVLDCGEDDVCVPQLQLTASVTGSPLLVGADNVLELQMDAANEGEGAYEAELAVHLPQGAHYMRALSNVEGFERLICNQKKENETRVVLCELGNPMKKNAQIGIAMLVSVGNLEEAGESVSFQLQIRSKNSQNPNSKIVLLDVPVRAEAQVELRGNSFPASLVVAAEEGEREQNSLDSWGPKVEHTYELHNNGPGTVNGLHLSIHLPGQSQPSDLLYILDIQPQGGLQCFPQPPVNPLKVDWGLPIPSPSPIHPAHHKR
T1 sequence (P08514 891-1039 limits assumed): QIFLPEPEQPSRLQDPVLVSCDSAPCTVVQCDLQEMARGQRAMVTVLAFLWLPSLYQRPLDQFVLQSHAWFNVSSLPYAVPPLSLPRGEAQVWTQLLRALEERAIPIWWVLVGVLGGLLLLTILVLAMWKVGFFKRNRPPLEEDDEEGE
T1 sequence (P05106 27-788): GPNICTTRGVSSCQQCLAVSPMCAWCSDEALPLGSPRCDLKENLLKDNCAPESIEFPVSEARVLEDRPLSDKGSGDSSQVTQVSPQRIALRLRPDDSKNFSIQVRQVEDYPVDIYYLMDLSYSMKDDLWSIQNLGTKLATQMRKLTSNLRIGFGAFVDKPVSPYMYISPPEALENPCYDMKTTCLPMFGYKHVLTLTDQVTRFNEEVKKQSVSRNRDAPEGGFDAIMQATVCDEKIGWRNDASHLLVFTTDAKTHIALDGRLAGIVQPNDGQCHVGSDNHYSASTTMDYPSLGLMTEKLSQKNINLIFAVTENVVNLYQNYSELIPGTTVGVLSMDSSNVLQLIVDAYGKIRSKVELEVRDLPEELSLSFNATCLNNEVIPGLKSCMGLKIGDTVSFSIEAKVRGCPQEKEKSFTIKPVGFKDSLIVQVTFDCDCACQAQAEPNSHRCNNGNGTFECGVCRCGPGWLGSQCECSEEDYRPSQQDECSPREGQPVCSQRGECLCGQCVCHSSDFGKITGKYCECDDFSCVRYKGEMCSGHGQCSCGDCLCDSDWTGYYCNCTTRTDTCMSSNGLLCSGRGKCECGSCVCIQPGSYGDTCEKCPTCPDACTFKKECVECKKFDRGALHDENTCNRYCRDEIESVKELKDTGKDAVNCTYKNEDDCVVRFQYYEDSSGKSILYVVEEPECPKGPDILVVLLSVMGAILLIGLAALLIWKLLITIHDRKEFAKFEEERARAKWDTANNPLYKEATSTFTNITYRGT
Description: (§1) In the ELISA Type-2 procedure, Costar Enzyme Immunoassay/Radioimmunoassay [EIA/RIA] 96 well flat bottom plates (medium binding [#3591]) were coated (4° C., 16 hours) with 250 ng of GPIIb/IIIa in phosphate buffered saline (PBS) containing 1 mM CaCl2 and 0.5 mM MgCl2 (PBS/Ca/Mg) in the presence or absence of the indicated GPIIb/IIIa antagonist (100 nM). After three washing steps (PBS/Ca/Mg containing 0.05% v/v Tween 20), plasma was diluted 1:5 in PBS/Ca/Mg containing 0.05% Tween 20 and added to the coated wells in the absence or presence of the indicated GPIIb/IIIa antagonist (100 nM) for 1 hour at room temperature. The wells were washed (PBS/Ca/Mg containing 0.05% v/v Tween 20) and incubated with peroxidase-labeled goat anti-human IgG (y) (Kirkegaard & Perry) for 1 hour at room temperature. The wells were washed (PBS/Ca/Mg containing 0.05% v/v Tween 20) and developed with o-phenyleninediamine [OPD] (0.4 mg/mL in phosphate citrate buffer containing sodium perborate [Sigma]). The change of absorbance was determined kinetically for 15 minutes at […] using a standard ELISA reader. Results are expressed as either delta OD [change in optical density] (Vmax plus compound)−(Vmax minus compound), or the ratio (Vmax plus compound/Vmax minus compound).
The occurrence of DDABs in the general population was tested. Plasma samples from blood donors were obtained from the American Red Cross and tested for reactivity with Compound A and Compound B in the DDAB ELISA Type-2 procedure. While the majority of the blood donors were negative in the DDAB ELISA, 2.2 and 14.6% donors presented a reactivity (delta>3) with Compound A and Compound B, respectively. A reactivity with a delta >5 was only evident in 1.3% and 7.1% of the blood donors with Compound A and Compound B, respectively. Thus, the prevalence and titer of pre-existing DDABs is relatively low in the general population and varies with the respective GPIIb/IIIa antagonist employed.

immobilized GPIIb/IIIa = biological target: T2, immobilized GPIIb/IIIa (Homo sapiens, UniProt P05106+P08514); test: GPIIb/IIIa DDAB ELISA: binding of plasma drug-dependent antibodies in presence versus absence of GPIIb/IIIa antagonist; conditions: for reactivity of the thrombocytopenic chimpanzee plasma in the DDAB ELISA / reactivity of the patient's plasma in the DDAB ELISA: in words; for ratio mOD/minute in the presence versus absence of the respective compound: antagonist 100 nM
T2 construct: GPIIb/IIIa was either obtained from commercial sources (Enzyme Research Laboratories) or purified as outlined below; Outdated platelet concentrates; tissue Enzyme Research Laboratories (alternative source; no catalogue number given); host or cells: outdated platelet concentrates (Interstate Blood Bank)
T2 sequence (P08514 32-887 limits assumed): as the sequence (P08514 32-887 limits assumed) above
T2 sequence (P08514 891-1039 limits assumed): as the sequence (P08514 891-1039 limits assumed) above
T2 sequence (P05106 27-788): as the sequence (P05106 27-788) above
Description: as §1
In the ELISA Type-1 procedure, after coating with GPIIb/IIIa, the plates were blocked with 1% goat serum (VWR Scientific) and 0.1% casein (Sigma) in PBS/Ca/Mg containing 0.05% Tween 20 for 30 minutes at room temperature, followed by the addition of plasma (diluted in PBS/Ca/Mg containing 0.05% Tween 20, 1% v/v goat serum, 0.1% casein) for 1 hour at room temperature. The secondary antibody was diluted 1:10,000 in PBS/Ca/Mg containing 0.05% Tween 20 and 0.1% casein, and added for 1 hour at room temperature. The bound peroxidase-labeled IgG was detected with 3,3′,5,5′-tetramethylbenzidine (TMB, substrate kit; Pierce) and change in absorbance was determined for 5 minutes at […]. In addition, in the ELISA Type-1 procedure, the respective GPIIb/IIIa antagonist (100 nM) was present in the appropriate wells throughout all incubation and washing steps. The ELISA Type-1 procedure with optimized blocking conditions combined with further purification of the GPIIb/IIIa reduced the background, resulting in increased signal to noise ratio. The immunoglobulin class of DDABs was determined using peroxidase-labeled murine monoclonal antibodies to human Ig (Zymed) as the detection step in the modified ELISA protocol. For these experiments, normal goat serum was replaced with normal murine serum (Zymed).
The ability of DDABs present in plasma from a patient and a chimpanzee to bind to immobilized GPIIb/IIIa in the presence of various GPIIb/IIIa antagonists were compared. Results are expressed as the ratio mOD/minute in the presence versus absence of the respective compound.
(§2) The reactivity of the patient's plasma with Compound A and metabolites thereof was compared. Metabolites of Compound A were isolated from rat urine and tested for their ability to prevent platelet aggregation in platelet-rich plasma. The ability of DDABs present in plasma from a patient to bind to GPIIb/IIIa in the presence of the indicated metabolites of Compound A was tested using the GPIIb/IIIa DDAB ELISA. All three metabolites of Compound A were active in preventing ADP-induced platelet aggregation using platelet rich plasma. While the metabolites only differ from the parental compound (Compound A) with respect to hydroxylation of a single carbon atom, the reactivity of the patient's DDABs with metabolite M-3 was only 50% and that with metabolite M-2 was undetectable.

[1] = tested on: platelet aggregation in platelet-rich plasma; test: ADP-induced platelet aggregation in platelet-rich plasma (PRP); type: cell-based
Description: as §2

gel purified platelets = test: Distribution of DDABs from plasma to gel purified platelets, dose-response of antagonist, read by DDAB ELISA; type: cell-based, human; conditions: plasma of healthy donor with DDABs to Compound A
Description: Panel A: Citrate plasma was obtained from two patients (307, 330) and a chimpanzee (A264) presenting with thrombocytopenic episodes while treated with GPIIb/IIIa antagonists Compound A or Compound D, respectively. The resulting plasma was incubated (30 minutes, room temperature) with gel purified platelets in the absence (closed bars) or presence (open bars) of Compound A (307, 330), or Compound D (A264). Platelets were removed by centrifugation, and the resulting plasma was analyzed by a GPIIb/IIIa-specific DDAB ELISA. The ELISA determines the binding of antibodies to GPIIb/IIIa in the presence of Compound A (307, 330) or Compound D (A264). […] Panel B: Citrate plasma derived from chimpanzee A264 (open circles) or an apparently healthy donor (closed circles) containing DDABs to Compound A was incubated with gel purified platelets in the presence of the indicated dose-response of Compound D (A264) or Compound A (healthy donor) as in panel A. Platelet poor plasma was prepared and analyzed by the DDAB ELISA as in panel A. Results are expressed as percentage inhibition of DDABs in plasma in comparison to samples treated with platelets in the absence of GPIIb/IIIa antagonist.
For solution-phase absorption in the DDAB ELISA, gel filtered platelets were prepared. […] Platelet-containing fractions were manually collected and platelet concentration was determined using a Coulter Counter. […]

[2] = Blood concentration in dosed patients; type: in vivo
[3] = plasma #330 (thrombocytopenic patient treated with Compound A)
[4] = plasma A264 (thrombocytopenic chimpanzee dosed with Compound D)

reactivity of the thrombocytopenic chimpanzee plasma in the DDAB ELISA (immobilized GPIIb/IIIa)	reactivity of the patient's plasma in the DDAB ELISA (immobilized GPIIb/IIIa)	ratio mOD/minute in the presence versus absence of the respective compound (immobilized GPIIb/IIIa; [3])	ratio mOD/minute in the presence versus absence of the respective compound (immobilized GPIIb/IIIa; [4])	Compound	blood donors with a reactivity with a delta >5 (GPIIb/IIIa)	donors presenting a reactivity (delta>3) (GPIIb/IIIa)	pIC50 [1]	pIC50 (gel purified platelets; estimated, read-out: IC50 (inhibition of DDABs in plasma by distribution to platelets))	concentration required to completely shift the DDABs to the platelet surface (gel purified platelets; 30 minutes, room temperature)	Peak blood concentrations [2]	ELISA ratio (immobilized GPIIb/IIIa; DDABs in plasma from a patient, binding to GPIIb/IIIa in presence of Compound A or its metabolites)
no reactivity	reacts strongly	11.2	0.8	Cc1noc(C)c1S(=O)(=O)N[C@@H](CNC(=O)C[C@H]1CC(c2ccc(C(=N)N)cc2)=NO1)C(=O)O [Compound B]	7.1%	14.6%	–	–	–	–	–
strongly reactive	reacts strongly	4.9	14.4	O=C(NC[C@H](NS(=O)(=O)c1cccnc1)C(=O)O)c1cc2cc(CCC3CCNCC3)sc2s1 [Compound D, 5-[2-(piperdin-4-yl)ethyl]thieno[2,3-b]thiophene-2-N-(3-2(S)-(3-pyridinylsulfonylamino)propionic acid]carboxamide]	–	–	–	–	–	–	–
less	no reactivity	1.0	5.4	Cc1ccc(S(=O)(=O)N[C@@H](CNC(=O)c2cc3n(n2)CCCN(CCC2CCNCC2)C3=O)C(=O)O)cc1 [Compound C, 2(S)-((4-methylphenylsulfonyl)amino]-3-[[[5,6,7,8-tetrahydro-4-oxo-5-[2-(piperidin-4-yl)ethyl]-4H-pyrazolo-[1,5-a][1,4]diazepin-2-yl]carbonyl]amino]propionic acid]	–	–	–	–	–	–	–

Compound	reactivity of the thrombocytopenic chimpanzee plasma in the DDAB ELISA (immobilized GPIIb/IIIa)	reactivity of the patient's plasma in the DDAB ELISA (immobilized GPIIb/IIIa)	ratio mOD/minute in the presence versus absence of the respective compound (immobilized GPIIb/IIIa; [3])	ratio mOD/minute in the presence versus absence of the respective compound (immobilized GPIIb/IIIa; [4])	blood donors with a reactivity with a delta >5 (GPIIb/IIIa)	donors presenting a reactivity (delta>3) (GPIIb/IIIa)	pIC50 [1]	pIC50 (gel purified platelets; estimated, read-out: IC50 (inhibition of DDABs in plasma by distribution to platelets))	concentration required to completely shift the DDABs to the platelet surface (gel purified platelets; 30 minutes, room temperature)	Peak blood concentrations [2]	ELISA ratio (immobilized GPIIb/IIIa; DDABs in plasma from a patient, binding to GPIIb/IIIa in presence of Compound A or its metabolites)
CCCCOC(=O)N[C@@H](CNC(=O)C[C@H]1CC(c2ccc(C(=N)N)cc2)=NO1)C(=O)O [Compound A, 2(S)-[(n-butoxycarbonyl)amino]-3-[[[3-[4-(aminoiminomethyl)phenyl]isoxazolin-5 (R)-yl]methylcarbonyl]amino]propionic acid]	no reactivity	reacts strongly	9.2	1.0	1.3%	2.2%	7.49	~9.52	Less than 1 nM	up to 50 nM	13.5
